Experimental data: patent US12559505B2, “IDH mutant inhibitor and use thereof” (WIGEN BIOMEDICINE TECHNOLOGY (SHANGHAI) CO., LTD., priority 2020, dated 2026)

Biological target: T1, IDH R132C (Homo sapiens, UniProt O75874, R132C)
T1 construct: expressed in transfected cells; host or cells: U87 cells
Test: Detection of 2-HG in supernatant of U87-IDH R132C cells
Format: cell-based
Settings: 72 h, LC-MS-MS, vs control; for inhibition at 0.001 µM: read-out: Inhibition rate of compounds on 2-HG in the supernatant of U87-IDH R132C cells, 1 nM; for inhibition at 0.01 µM: read-out: Inhibition rate of compounds on 2-HG in the supernatant of U87-IDH R132C cells, 10 nM; for inhibition at 0.1 µM: read-out: Inhibition rate of compounds on 2-HG in the supernatant of U87-IDH R132C cells, 100 nM
Experimental: U87 cells overexpressing the IDH R132C mutation were seeded in a 48-well plate at 50,000 cells/well. After the cells were incubated overnight for adhesion, the supernatant was removed. The cell culture media containing serially diluted compounds were added, and the cells were incubated for 72 h. After 72 h, the cultures were collected and diluted 10-fold with water, and acetonitrile was added to extract the metabolites. The 2-HG content in the cultures was analyzed by LC-MS-MS, and the percentage inhibition of compounds on 2-HG in the supernatant was calculated as compared with the control.

T1 sequence (O75874 whole entry R132C): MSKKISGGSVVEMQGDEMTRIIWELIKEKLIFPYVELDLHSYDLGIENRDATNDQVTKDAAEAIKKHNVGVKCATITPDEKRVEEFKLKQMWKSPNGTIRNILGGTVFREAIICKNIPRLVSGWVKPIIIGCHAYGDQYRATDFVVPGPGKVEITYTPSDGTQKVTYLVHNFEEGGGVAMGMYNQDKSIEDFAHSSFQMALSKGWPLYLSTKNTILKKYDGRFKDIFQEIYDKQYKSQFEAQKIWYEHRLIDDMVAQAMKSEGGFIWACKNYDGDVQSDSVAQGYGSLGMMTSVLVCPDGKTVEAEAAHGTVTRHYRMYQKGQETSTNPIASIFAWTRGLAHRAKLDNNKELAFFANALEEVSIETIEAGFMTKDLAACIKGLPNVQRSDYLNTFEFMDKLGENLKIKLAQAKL

With `C=CC(=O)N1CC2(C1)CN(C(CC1CC1)c1ccc([C@H](C)Nc3ncc4c(n3)N(CC(C)C)C(=O)OC4)cc1)C2` (stereo partly drawn) [Compound 54] the inhibition at 0.001 µM (1 nM compound) was 60 to 90%, the inhibition at 0.01 µM (10 nM compound) was 60 to 90% and the inhibition at 0.1 µM (100 nM compound) was over 90%.

For `C=CC(=O)N1CC2(C1)CN(C(CC13CC(C1)C3)c1ccc([C@H](C)Nc3ncc4c(n3)N(CC)C(=O)NC4)cc1)C2` (stereo partly drawn) [Compound 72], the inhibition at 0.001 µM (1 nM compound) was 60 to 90%, the inhibition at 0.01 µM (10 nM compound) was over 90% and the inhibition at 0.1 µM (100 nM compound) was over 90%.

`C=CC(=O)N1CCN(C(CC2CC2)c2ccc([C@H](C)Nc3ncc4c(n3)N(CC)C(=O)NC4)cc2)CC1` (stereo partly drawn) [Compound 82] gave an inhibition at 0.001 µM (1 nM compound) of 30 to 60%, an inhibition at 0.01 µM (10 nM compound) of 60 to 90% and an inhibition at 0.1 µM (100 nM compound) of over 90%.

`C=CC(=O)N1CC2(C1)CN(C(CC1CC1)c1ccc([C@H](C)Nc3ncc4cnc(=O)n(C(C)C)c4n3)cc1)C2` (stereo partly drawn) [Compound 86] showed an inhibition at 0.001 µM (1 nM compound) of 60 to 90%, an inhibition at 0.01 µM (10 nM compound) of 60 to 90% and an inhibition at 0.1 µM (100 nM compound) of over 90%.

Work on `C=CC(=O)N1CCN(C(CC2(C)CC2)c2ccc([C@H](C)Nc3ncc4cnc(=O)n(CC)c4n3)cc2)CC1` (stereo partly drawn) [Compound 131] yielded an inhibition at 0.001 µM (1 nM compound) of 60 to 90%, an inhibition at 0.01 µM (10 nM compound) of over 90% and an inhibition at 0.1 µM (100 nM compound) of over 90%.

Work on `C=CC(=O)N1CCN(C(CC2(C)CC2)c2ccc([C@H](C)Nc3ncc4c(n3)N(CC)C(=O)NC4)cc2)CC1` (stereo partly drawn) [Compound 69] yielded an inhibition at 0.001 µM (1 nM compound) of 30 to 60%, an inhibition at 0.01 µM (10 nM compound) of over 90% and an inhibition at 0.1 µM (100 nM compound) of over 90%.

For `C=CC(=O)N1CCN(C(CC(C)C)c2ccc([C@H](C)Nc3ncc4cnc(=O)n(C(C)C)c4n3)cc2)CC1` (stereo partly drawn) [Compound 113], the inhibition at 0.001 µM (1 nM compound) was 60 to 90%, the inhibition at 0.01 µM (10 nM compound) was over 90% and the inhibition at 0.1 µM (100 nM compound) was over 90%.

`C=CC(=O)NC1CN(C(CC2CC2)c2ccc(C3(Nc4ncc5c(n4)N(CC)C(=O)OC5)CC3)cc2)C1` (stereo not drawn) [Compound 28] gave an inhibition at 0.001 µM (1 nM compound) of under 30%, an inhibition at 0.01 µM (10 nM compound) of 60 to 90% and an inhibition at 0.1 µM (100 nM compound) of over 90%.

For `C=CC(=O)N1CC2(C1)CN(C(CC13CC(C1)C3)c1ccc([C@H](C)Nc3ncc4c(n3)N(CC)C(=O)OC4)cc1)C2` (stereo partly drawn) [Compound 66], the inhibition at 0.001 µM (1 nM compound) was 60 to 90%, the inhibition at 0.01 µM (10 nM compound) was over 90% and the inhibition at 0.1 µM (100 nM compound) was over 90%.

Work on `C=CC(=O)N1CC2(C1)CN(C(CC(C)C)c1ccc([C@H](C)Nc3ncc4c(n3)N(C(C)C)C(=O)OC4)cc1)C2` (stereo partly drawn) [Compound 47] yielded an inhibition at 0.001 µM (1 nM compound) of 60 to 90%, an inhibition at 0.01 µM (10 nM compound) of over 90% and an inhibition at 0.1 µM (100 nM compound) of over 90%.

Compound `C=CC(=O)N(C)C1CCN(C(CC2CC2)c2ccc([C@H](C)Nc3ncc4c(n3)N(CC)C(=O)OC4)cc2)CC1` (stereo partly drawn) [Compound 16] has an inhibition at 0.001 µM (1 nM compound) of 30 to 60%, an inhibition at 0.01 µM (10 nM compound) of 60 to 90% and an inhibition at 0.1 µM (100 nM compound) of over 90%.

For `C=CC(=O)N1CCN([C@@H](CC23CC(C2)C3)c2ccc([C@H](C)Nc3ncc4c(n3)N(CC)C(=O)NC4)cc2)CC1` [Compound 70-1], the inhibition at 0.001 µM (1 nM compound) was 60 to 90%, the inhibition at 0.01 µM (10 nM compound) was over 90% and the inhibition at 0.1 µM (100 nM compound) was over 90%.

For `C=CC(=O)N1CC2(C1)CN([C@@H](CC13CC(C1)C3)c1ccc([C@H](C)Nc3ncc4c(n3)N(CC)C(=O)NC4)cc1)C2` [Compound 72-1], the inhibition at 0.001 µM (1 nM compound) was 60 to 90%, the inhibition at 0.01 µM (10 nM compound) was over 90% and the inhibition at 0.1 µM (100 nM compound) was over 90%.

In the case of `C=CC(=O)N1CC2(C1)CN([C@H](CC13CC(C1)C3)c1ccc([C@H](C)Nc3ncc4c(n3)N(CC)C(=O)OC4)cc1)C2` [Compound 66-2], the inhibition at 0.001 µM (1 nM compound) was 30 to 60%, the inhibition at 0.01 µM (10 nM compound) was 60 to 90% and the inhibition at 0.1 µM (100 nM compound) was over 90%.

For `C=CC(=O)N1CCN(C(CC(C)C)c2ccc([C@H](C)Nc3ncc4c(n3)N(C(C)C)C(=O)NC4)cc2)CC1` (stereo partly drawn) [Compound 81], the inhibition at 0.001 µM (1 nM compound) was 30 to 60%, the inhibition at 0.01 µM (10 nM compound) was 60 to 90% and the inhibition at 0.1 µM (100 nM compound) was over 90%.

Compound `C=CC(=O)N1CCN([C@@H](CC2CC2)c2ccc([C@H](C)Nc3ncc4c(n3)N(C(C)C)C(=O)OC4)cc2)CC1` [Compound 147-1] has an inhibition at 0.001 µM (1 nM compound) of 60 to 90%, an inhibition at 0.01 µM (10 nM compound) of over 90% and an inhibition at 0.1 µM (100 nM compound) of over 90%.

With `C=CC(=O)N1CC2(C1)CN([C@@H](CC13CC(C1)C3)c1ccc([C@H](C)Nc3ncc4c(n3)N(CC)C(=O)OC4)cc1)C2` [Compound 66-1] the inhibition at 0.001 µM (1 nM compound) was 60 to 90%, the inhibition at 0.01 µM (10 nM compound) was over 90% and the inhibition at 0.1 µM (100 nM compound) was over 90%.

For `C=CC(=O)N1CCN([C@@H](CC2CC2)c2ccc([C@H](C)Nc3ncc4cnc(=O)n(CC)c4n3)cc2)CC1` [Compound 114-1], the inhibition at 0.001 µM (1 nM compound) was 60 to 90%, the inhibition at 0.01 µM (10 nM compound) was over 90% and the inhibition at 0.1 µM (100 nM compound) was over 90%.

`C=CC(=O)NC1CCN(C(CC2CC2)c2ccc(C3(Nc4ncc5c(n4)N(C(C)C)C(=O)OC5)CC3)cc2)CC1` (stereo not drawn) [Compound 32] gave an inhibition at 0.001 µM (1 nM compound) of 30 to 60%, an inhibition at 0.01 µM (10 nM compound) of 30 to 60% and an inhibition at 0.1 µM (100 nM compound) of over 90%.

Work on `C=CC(=O)N1CC2(C1)CN(C(CC)c1ccc([C@H](C)Nc3ncc4c(n3)N(CC)C(=O)OC4)cc1)C2` (stereo partly drawn) [Compound 36] yielded an inhibition at 0.001 µM (1 nM compound) of 60 to 90%, an inhibition at 0.01 µM (10 nM compound) of over 90% and an inhibition at 0.1 µM (100 nM compound) of over 90%.

In the case of `C=CC(=O)NC1CCN(C(CC2CC2)c2ccc(C3(Nc4ncc5c(n4)N(CC)C(=O)OC5)CC3)cc2)CC1` (stereo not drawn) [Compound 27], the inhibition at 0.001 µM (1 nM compound) was 30 to 60%, the inhibition at 0.01 µM (10 nM compound) was 60 to 90% and the inhibition at 0.1 µM (100 nM compound) was over 90%.

For `C=CC(=O)N1CC2(CC([C@H](CC)c3ccc(CNc4ncc5c(n4)N(CC)C(=O)OC5)cc3)C2)C1` [Compound 36-2], the “Inhibition rate of compounds on 2-HG in the supernatant of U87-IDH R132C cells, 1 nM” value (1 nM compound) was “B (B represents an inhibition rate greater than 60% but less than or equal to 90%)”, the “Inhibition rate of compounds on 2-HG in the supernatant of U87-IDH R132C cells, 10 nM” value (10 nM compound) was “B (B represents an inhibition rate greater than 60% but less than or equal to 90%)” and the “Inhibition rate of compounds on 2-HG in the supernatant of U87-IDH R132C cells, 100 nM” value (100 nM compound) was “A (A represents an inhibition rate greater than 90%)”.

Compound `C=CC(=O)N1CCN([C@H](CC)c2ccc([C@H](C)Nc3ncc4cnc(=O)n(CC)c4n3)cc2)CC1` [Compound 116-2] has an inhibition at 0.001 µM (1 nM compound) of 30 to 60%, an inhibition at 0.01 µM (10 nM compound) of 60 to 90% and an inhibition at 0.1 µM (100 nM compound) of over 90%.

In the case of `C=CC(=O)N1CCN(C(CC)c2ccc([C@H](C)Nc3ncc4cnc(=O)n(CC)c4n3)cc2)CC1` (stereo partly drawn) [Compound 115], the inhibition at 0.001 µM (1 nM compound) was 30 to 60%, the inhibition at 0.01 µM (10 nM compound) was over 90% and the inhibition at 0.1 µM (100 nM compound) was over 90%.

For `C=CC(=O)N1CCN([C@H](CC2CC2)c2ccc([C@H](C)Nc3ncc4c(n3)N(C(C)C)C(=O)OC4)cc2)CC1` [Compound 147-2], the inhibition at 0.001 µM (1 nM compound) was 30 to 60%, the inhibition at 0.01 µM (10 nM compound) was 60 to 90% and the inhibition at 0.1 µM (100 nM compound) was over 90%.

For `C=CC(=O)N1CCN(C(CC(C)(C)C)c2ccc([C@H](C)Nc3ncc4c(n3)N(C(C)C)C(=O)OC4)cc2)CC1` (stereo partly drawn) [Compound 146], the inhibition at 0.001 µM (1 nM compound) was 30 to 60%, the inhibition at 0.01 µM (10 nM compound) was 60 to 90% and the inhibition at 0.1 µM (100 nM compound) was over 90%.

Compound `C=CC(=O)N(C)C1CN(C(CC2CC2)c2ccc(C3(Nc4ncc5c(n4)N(CC)C(=O)OC5)CC3)cc2)C1` (stereo not drawn) [Compound 30] has an inhibition at 0.001 µM (1 nM compound) of 30 to 60%, an inhibition at 0.01 µM (10 nM compound) of 60 to 90% and an inhibition at 0.1 µM (100 nM compound) of over 90%.

`C=CC(=O)N1CCN(C(CC2CC2)c2ccc([C@H](C)Nc3ncc4cnc(=O)n(CC)c4n3)cc2)CC1` (stereo partly drawn) [Compound 114] gave an inhibition at 0.001 µM (1 nM compound) of 60 to 90%, an inhibition at 0.01 µM (10 nM compound) of over 90% and an inhibition at 0.1 µM (100 nM compound) of over 90%.

`C=CC(=O)N1CCN(C(CC2CC2)c2ccc(C3(Nc4ncc5cnc(=O)n(CC)c5n4)CC3)cc2)CC1` (stereo not drawn) [Compound 109] showed an inhibition at 0.001 µM (1 nM compound) of 60 to 90%, an inhibition at 0.01 µM (10 nM compound) of 60 to 90% and an inhibition at 0.1 µM (100 nM compound) of over 90%.

`C=CC(=O)N1CC2(C1)CN(C(CC1(C)CC1)c1ccc([C@H](C)Nc3ncc4c(n3)N(CC)C(=O)NC4)cc1)C2` (stereo partly drawn) [Compound 71] was tested, and the inhibition at 0.001 µM (1 nM compound) was 30 to 60%, the inhibition at 0.01 µM (10 nM compound) was over 90% and the inhibition at 0.1 µM (100 nM compound) was over 90%.

In the case of `C=CC(=O)N1CCN(C(CC2CCC2)c2ccc([C@H](C)Nc3ncc4c(n3)N(C(C)C)C(=O)OC4)cc2)CC1` (stereo partly drawn) [Compound 143], the inhibition at 0.001 µM (1 nM compound) was 30 to 60%, the inhibition at 0.01 µM (10 nM compound) was 60 to 90% and the inhibition at 0.1 µM (100 nM compound) was over 90%.
